Reference: patent US20260209220A1, “SUBSTITUTED TETRAHYDROPYRROLO-PYRIDINONE COMPOUNDS AND THEIR USE IN TREATING MEDICAL CONDITIONS” (Karuna Therapeutics, Inc., priority 2022, published 2026)

Tests used:
[1] = target: T1, human M4 receptor (Homo sapiens, UniProt P08173); experiment: M4 GTPγS PAM assay (CHO-K1 membranes, 35S-GTP binding, with EC20 acetylcholine); type: biochemical; details: with EC20 acetylcholine (40 nM)
T1 construct: expressed in transfected cells; host or cells: CHO-K1 cells (membranes)
T1 sequence (P08173 1-479): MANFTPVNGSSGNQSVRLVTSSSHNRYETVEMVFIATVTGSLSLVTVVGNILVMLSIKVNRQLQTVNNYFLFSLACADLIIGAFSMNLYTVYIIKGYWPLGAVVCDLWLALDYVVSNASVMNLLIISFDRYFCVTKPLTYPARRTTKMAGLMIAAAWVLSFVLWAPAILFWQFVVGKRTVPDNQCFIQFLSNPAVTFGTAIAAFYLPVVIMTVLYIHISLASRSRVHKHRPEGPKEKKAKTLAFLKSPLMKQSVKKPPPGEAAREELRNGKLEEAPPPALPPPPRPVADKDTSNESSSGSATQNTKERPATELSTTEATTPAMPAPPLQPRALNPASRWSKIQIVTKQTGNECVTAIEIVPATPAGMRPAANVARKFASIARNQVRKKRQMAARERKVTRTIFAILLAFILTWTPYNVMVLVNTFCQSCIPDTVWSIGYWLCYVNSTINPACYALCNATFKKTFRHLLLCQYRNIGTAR
Procedure: The M4 GTPγS PAM method was used. Membranes were prepared for GTPgS binding assays from CHO-K1 cells stably expressing human M4 receptor. Briefly, cells were grown in 5-layer cell culture flasks. Cells were washed with 50 mL of PBS and then dissociated with 0.05% trypsin. Dissociated cells were then collected by centrifugation at 650×g for 8 minutes at 4° C. Pellets were washed again in PBS by centrifugation and resuspended in 30 mL of 20 mM HEPES, 10 mM EDTA, pH 7.4. After sitting on ice for 30 min, membranes were collected by centrifugation at 50000×g for 15′ at 4° C., resuspended in 30 mL of 20 mM HEPES, 0.1 mM EDTA, pH 7.4 and collected again by centrifugation. Pellets were then washed twice by centrifugation in 30 mL of 20 mM HEPES, pH 7.4, and stored at −80° C. until the day of the assay. On the day of the assay, pellets were thawed on ice and resuspended in 1 mL of 20 mM HEPES, pH 7.4, 10 mM MgCl2, 100 mM NaCl using dounce homogenization. Membrane protein concentration is determined by BCA protein assay (Promega, Madison, WI) according to Promega guidelines.
On the day of the assay, serial dilutions of test PAM compounds were brought up in assay buffer (20 mM HEPES, 10 mM MgCl2, 100 mM NaCl) at 4X final assay concentration. […] of membrane homogenates (containing […] of membrane protein) were prepared in assay buffer supplemented with GDP at […] final assay concentration (final assay concentration of GDP is 5 μM for M2 and 0.1 μM for M4) and dispensed into 96 well polypropylene, U-bottom Greiner plates. 25 ml of vehicle or test PAM compound at 4× of final assay concentration diluted in the assay buffer were added to membrane and plates are incubated for 10-15 minutes at room temperature with gentle shaking. Then, […] of EC20 acetylcholine in assay buffer at 4× final assay concentration was added to assay plates (EC20 final assay concentrations was 40 nM for human M4).
Plates were then incubated, with shaking, for an additional 10-15 minutes. […] of 0.4 nM 35S-GTP (Perkin Elmer, Waltham, MA) in assay buffer was added to assay mixtures. The binding reaction is left on the shaker for 1 hour at room temperature. Membranes in assay reactions were then transferred to GF/C filter plates (Unifilter, Perkin Elmer) and washed three times using a FilterMate Harvester (Perkin Elmer) with cold assay buffer containing no GDP. Filter plates were then dried at 40° C. overnight followed by the addition of […] of Beta Plate Scintillation liquid. Plates are top and bottom sealed before being read on TopCount scintillation counter (Perkin Elmer, Waltham, MA).

[2] = target: T2, rM4 receptors (Rattus norvegicus, UniProt P08485); experiment: Rat M4 PAM PERK assay (CHO cells, TR-FRET, with EC20 acetylcholine); type: cell-based
T2 construct: expressed in transfected cells; host or cells: CHO cells
T2 sequence (P08485 1-478): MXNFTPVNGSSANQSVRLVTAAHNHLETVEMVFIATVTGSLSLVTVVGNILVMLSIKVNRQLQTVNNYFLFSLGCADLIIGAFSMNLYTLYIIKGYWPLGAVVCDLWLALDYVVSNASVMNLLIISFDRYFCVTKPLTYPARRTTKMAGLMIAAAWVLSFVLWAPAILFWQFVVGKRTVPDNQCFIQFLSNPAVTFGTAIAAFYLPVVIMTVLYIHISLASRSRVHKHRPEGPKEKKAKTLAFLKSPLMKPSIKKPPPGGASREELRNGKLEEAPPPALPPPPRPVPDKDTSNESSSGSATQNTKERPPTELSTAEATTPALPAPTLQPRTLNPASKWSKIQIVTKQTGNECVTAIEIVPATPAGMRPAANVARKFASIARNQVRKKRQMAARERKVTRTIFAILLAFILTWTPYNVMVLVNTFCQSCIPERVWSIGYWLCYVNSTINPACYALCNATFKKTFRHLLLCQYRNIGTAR
How it was run: (§1)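 CHO cells expressing human or rat M4, serum-starved 4 h, then given compound (10-point, 10 μM top, ½-log) with EC20 acetylcholine (10 nM final) for 5 min at 37 °C. Lysates assayed for phospho-ERK by TR-FRET after 2 h detection at RT.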

[3] = target: T3, hM4 receptors (Homo sapiens, UniProt P08173); experiment: Human M4 PAM PERK assay (CHO cells, TR-FRET, with EC20 acetylcholine); type: cell-based
T3 construct: expressed in transfected cells; host or cells: CHO cells
T3 sequence (P08173 1-479): T1 sequence (P08173 1-479)
How it was run: as §1

Structure (SMILES) | EC50 [1] [nM] | EC50 [2] [nM] | EC50 [3] [nM]
Cc1cc(=O)n(C)c2c1CN(C(=O)CC1CN(c3ccc4c(c3)COC4)C1)C2 [Compound I-16] | 200 to 1000 | 200 to 1000 | 50 to 200
Cc1cc(=O)n(CC2CC2)c2c1CN(C(=O)CC1CN(c3ccc(C(F)(F)F)cc3)C1)C2 [Compound I-102] | 50 to 200 | 200 to 1000 | 200 to 1000
Cc1c2c(n(CC(F)(F)F)c(=O)c1Cl)CN(C(=O)CC1CN(c3ccncn3)C1)C2 [Compound I-95] | 50 to 200 | > 1000 | 50 to 200
Cc1c2c(n(C)c(=O)c1C)CN(C(=O)CC1CN(c3cc(F)cc(F)c3)C1)C2 [Compound I-56] | 50 to 200 | 50 to 200 | < 50
Cc1c2c(n(C)c(=O)c1C)CN(C(=O)CC1CN(c3cnc(C4CC4)cn3)C1)C2 [Compound I-58] | 50 to 200 | 50 to 200 | 50 to 200
Cc1c2c(n(C)c(=O)c1Cl)CN(C(=O)CC1CN(c3ccc(C(F)(F)F)cc3)C1)C2 [Compound I-68] | < 50 | < 50 | < 50
Cc1c2c(n(C)c(=O)c1F)CN(C(=O)CC1CN(c3cnc(C(F)(F)F)cn3)C1)C2 [Compound I-90] | 200 to 1000 | 50 to 200 | 200 to 1000
Cc1c2c(n(C)c(=O)c1C)CN(C(=O)CC1CN(c3nc(C(F)(F)F)c(C4CC4)s3)C1)C2 [Compound I-64, 6-(2-(1-(5-Cyclopropyl-4-(trifluoromethyl)thiazol-2-yl)azetidin-3-yl)acetyl)-1,3,4-trimethyl-1,5,6,7-tetrahydro-2H-pyrrolo[3,4-b]pyridin-2-one] | 50 to 200 | 200 to 1000 | 50 to 200
Cc1c2c(n(C)c(=O)c1C)CN(C(=O)CC1CN(c3ccc(C4CC4)c(F)c3)C1C)C2 (single isomer, unassigned) [Compound I-61] | < 50 | < 50 | < 50
Cc1cc(=O)n(C)c2c1CN(C(=O)CC1CN(c3ncns3)C1)C2 [Compound I-18] | 200 to 1000 | > 1000 | 200 to 1000
COc1c2c(n(C)c(=O)c1C)CN(C(=O)CC1CN(c3ccc(C(F)(F)F)cc3)C1)C2 [Compound I-100] | < 50 | 200 to 1000 | 50 to 200
Cc1c2c(n(C)c(=O)c1C)CN(C(=O)CC1CN(c3ccc(C(F)(F)F)cc3)C1)C2 [Compound I-43] | < 50 | 50 to 200 | 50 to 200
Cc1cc(=O)n(C)c2c1[C@H](C)N(C(=O)CC1CN(c3ccc(C(F)(F)F)cc3)C1)C2 [Compound I-116, (S)-1,4,5-trimethyl-6-(2-(1-(4-(trifluoromethyl)phenyl)azetidin-3-yl)acetyl)-1,5,6,7-tetrahydro-2H-pyrrolo[3,4-b]pyridin-2-one] | > 1000 | > 1000 | > 1000
Cn1c2c(c(C(F)(F)F)cc1=O)CN(C(=O)CC1CN(c3cccnc3)C1)C2 [Compound I-91, 1-Methyl-6-(2-(1-(pyridin-3-yl)azetidin-3-yl)acetyl)-4-(trifluoromethyl)-1,5,6,7-tetrahydro-2H-pyrrolo[3,4-b]pyridin-2-one] | > 1000 | 200 to 1000 | 200 to 1000
Cc1cc(=O)n(C)c2c1CN(C(=O)CC1CN(c3ccc(F)c(C(F)(F)F)c3)C1)C2 [Compound I-20] | 200 to 1000 | 50 to 200 | 50 to 200
